This is an account of results in patent US10513521B2, “Compositions and methods for inhibiting BMP” (The Brigham and Women's Hospital, Inc., priority 2014, dated 2019).

For one experiment, the target named is T1, ALK5 (Homo sapiens, UniProt P36897).
T1 sequence (P36897 34-503): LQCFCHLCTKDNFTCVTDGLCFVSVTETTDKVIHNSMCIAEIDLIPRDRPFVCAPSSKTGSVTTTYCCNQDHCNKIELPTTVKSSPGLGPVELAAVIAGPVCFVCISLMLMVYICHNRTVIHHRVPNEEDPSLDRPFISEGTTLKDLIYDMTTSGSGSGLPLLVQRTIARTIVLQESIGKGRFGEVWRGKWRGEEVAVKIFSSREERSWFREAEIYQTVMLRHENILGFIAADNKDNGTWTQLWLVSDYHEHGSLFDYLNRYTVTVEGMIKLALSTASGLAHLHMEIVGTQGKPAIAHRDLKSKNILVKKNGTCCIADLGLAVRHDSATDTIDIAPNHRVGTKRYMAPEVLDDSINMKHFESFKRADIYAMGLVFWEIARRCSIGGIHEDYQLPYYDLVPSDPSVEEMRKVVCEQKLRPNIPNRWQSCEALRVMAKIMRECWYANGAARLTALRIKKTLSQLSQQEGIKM
Kind of experiment: TR-FRET enzymatic ALK kinase assay, ALK5. (TR-FRET usually uses a lanthanide donor and a delayed reading to cut background.)

The next experiment addresses ALK3 (Homo sapiens, UniProt P36894). Briefly: TR-FRET enzymatic ALK kinase assay, ALK3.
Experiment [1] deals with ALK1 (Homo sapiens, UniProt P37023). Kind of experiment: TR-FRET enzymatic ALK kinase assay, ALK1.
ALK1 (Homo sapiens, UniProt P37023), sequence (P37023 22-503): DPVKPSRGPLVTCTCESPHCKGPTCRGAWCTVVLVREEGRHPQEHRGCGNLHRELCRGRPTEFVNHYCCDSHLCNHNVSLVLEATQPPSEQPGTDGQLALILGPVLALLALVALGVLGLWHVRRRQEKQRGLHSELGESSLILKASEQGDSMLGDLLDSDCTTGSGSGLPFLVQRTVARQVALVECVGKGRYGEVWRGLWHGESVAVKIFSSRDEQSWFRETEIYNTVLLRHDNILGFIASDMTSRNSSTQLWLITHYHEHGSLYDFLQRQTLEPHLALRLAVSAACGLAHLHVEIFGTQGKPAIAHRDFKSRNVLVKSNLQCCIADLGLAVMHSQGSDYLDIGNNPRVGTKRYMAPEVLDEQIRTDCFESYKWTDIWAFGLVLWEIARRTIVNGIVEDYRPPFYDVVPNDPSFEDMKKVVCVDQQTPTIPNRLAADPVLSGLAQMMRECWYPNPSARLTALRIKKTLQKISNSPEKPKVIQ
Protocol: (§1) Briefly, the ALKs enzymatic assay was initiated by dispense 2.5 μl enzyme in 1× kinase reaction buffer. The assay plate was then added with compounds followed by incubation at room temperature for 10 minutes. Then 2.5 μl/well substrate was added.
Experiment [2] has as its target T2, ALK1 (Bos taurus, UniProt A4FUX2).
T2 construct: The BAOEC cell line was employed for the measurement of ALK1 activity using BMP9 as the agonist; host or cells: BAOEC (bovine aortic endothelial cells)
T2 sequence (A4FUX2 23-503): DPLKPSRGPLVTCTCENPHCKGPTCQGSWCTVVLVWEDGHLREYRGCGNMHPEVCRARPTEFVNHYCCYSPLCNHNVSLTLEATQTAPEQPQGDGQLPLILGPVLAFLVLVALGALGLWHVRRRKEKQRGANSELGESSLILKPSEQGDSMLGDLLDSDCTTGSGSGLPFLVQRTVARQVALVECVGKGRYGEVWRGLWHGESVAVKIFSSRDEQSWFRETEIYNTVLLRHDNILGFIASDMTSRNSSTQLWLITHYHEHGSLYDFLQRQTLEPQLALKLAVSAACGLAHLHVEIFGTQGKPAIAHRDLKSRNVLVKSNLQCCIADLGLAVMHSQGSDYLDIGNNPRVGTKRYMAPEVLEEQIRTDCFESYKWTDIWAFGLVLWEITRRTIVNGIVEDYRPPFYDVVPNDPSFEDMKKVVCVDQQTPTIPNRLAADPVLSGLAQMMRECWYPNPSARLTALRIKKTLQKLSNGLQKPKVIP
Briefly: In-cell Western ALK1 assay (BAOEC cells, BMP9 as agonist). The class given is cell-based, Bovine. To be noted: read-out: BMP9 ICW. From the text: 3. In-Cell Western ALK1 and ALK2 Assays in 384-Well Plate Format.
We also optimized cell-based In-cell Western assays for measurements of ALK1 and ALK2 activities that were used to determine compound activities in these two kinases. The cell lines and agonists used were same as described in above cell-based HTRF ALK1 and ALK2 assays. The initial cell plating and compound treatment were also same. The main difference is the detection of phosphorylation status of SMAD1. In t-cell Western assay, the cells were fixed and phosphorylation status of SMAD1 was detected by the ELISA instead of using the HTRF assay kit in above assay.
C2C12 cells and RPMI 1640 medium were obtained from ATCC (Manassas, Va.) and Bovine Aortic endothelial Cells (BAOEC) and epithelial defined growth medium were purchased from Genlantis (San Deigo, Calif.). HyClone Fetal Bovine Serum was obtained from GE healthcare life sciences (Logan, Utah). BMP6 and BMP9 were purchased from R&D System (R&D). Anti-P-SMAD 1/5/8 rabbit mAb and anti-rabbit IgG, HRP-Linked antibody were purchased from Cell Signaling Technology (Danvers, Mass.). BioFX Chemiluminescent Ultra-Sensitive HRP Microwell Substrate ECL Reagent was obtained from SurModics (Edina, Minn.). The compound plates and the white solid MB assay plates were from Greiner Bio-one (Monroe, N.C.).
Similarly as described in above HTRF cell-based assay, this assay was performed in 384 well plate format. C2C12 were grown in T225 flasks were sterilely washed with 1×PBS pre-starved with medium containing 0.1% FBS for 20 hours. Pre-starved cells were then plated in 384 well plate in the starvation medium (containing in 0.1% FBS). After 4 hours, compound dilutions in DMSO were added to the assay plate and incubated for 30 minutes. The assay plate was then added with BMP6 for C2C12 cells or BMP9 for BAOEC cells and incubated for 30 minutes.
Cells were fixed with 50 ul ice-cold methanol and incubated for 15 min after removing the supernatant. The methanol was removed and filled with 0.5% glutaraldehyde and incubated at room temperature for 15 min. The cells were washed in the plate washer with PBS and blocked with 2% BSA in PBS for 1 h at room temperature on the rotator. After removing the blocking reagent, the cells were incubated with the anti-p-SMAD1 antibody in 2% BSA in PBS for overnight at 4° C. on rotator. The cells were washed with PBS in the plate washer and incubated with HRP conjugated second antibody in 2% BSA in PBS for 1 hour at room temperature. After a cell wash with PBS, ECL detection reagent was added and the plate was read in the luminesce mode in the ViewLux plate reader.

The target in the next experiment is T3, ALK4 (Homo sapiens, UniProt P36896).
T3 sequence (P36896 24-505): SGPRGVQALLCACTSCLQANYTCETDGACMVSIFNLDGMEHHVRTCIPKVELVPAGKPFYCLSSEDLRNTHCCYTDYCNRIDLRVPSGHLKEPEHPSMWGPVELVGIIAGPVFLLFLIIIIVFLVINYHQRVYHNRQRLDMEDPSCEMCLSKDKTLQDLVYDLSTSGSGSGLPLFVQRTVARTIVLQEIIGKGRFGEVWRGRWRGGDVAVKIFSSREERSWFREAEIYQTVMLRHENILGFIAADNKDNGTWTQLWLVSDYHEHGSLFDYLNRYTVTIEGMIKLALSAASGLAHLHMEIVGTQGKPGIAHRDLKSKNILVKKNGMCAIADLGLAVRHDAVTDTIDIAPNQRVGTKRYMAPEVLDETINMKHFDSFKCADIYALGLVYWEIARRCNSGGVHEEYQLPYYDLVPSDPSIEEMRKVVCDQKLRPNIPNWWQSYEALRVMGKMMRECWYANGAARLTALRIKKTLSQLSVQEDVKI
Kind of experiment: TR-FRET enzymatic ALK kinase assay, ALK4.

In the next experiment the target is ALK6 (Homo sapiens, UniProt O00238). Kind of experiment: TR-FRET enzymatic ALK kinase assay, ALK6.
ALK6, sequence (O00238 14-502): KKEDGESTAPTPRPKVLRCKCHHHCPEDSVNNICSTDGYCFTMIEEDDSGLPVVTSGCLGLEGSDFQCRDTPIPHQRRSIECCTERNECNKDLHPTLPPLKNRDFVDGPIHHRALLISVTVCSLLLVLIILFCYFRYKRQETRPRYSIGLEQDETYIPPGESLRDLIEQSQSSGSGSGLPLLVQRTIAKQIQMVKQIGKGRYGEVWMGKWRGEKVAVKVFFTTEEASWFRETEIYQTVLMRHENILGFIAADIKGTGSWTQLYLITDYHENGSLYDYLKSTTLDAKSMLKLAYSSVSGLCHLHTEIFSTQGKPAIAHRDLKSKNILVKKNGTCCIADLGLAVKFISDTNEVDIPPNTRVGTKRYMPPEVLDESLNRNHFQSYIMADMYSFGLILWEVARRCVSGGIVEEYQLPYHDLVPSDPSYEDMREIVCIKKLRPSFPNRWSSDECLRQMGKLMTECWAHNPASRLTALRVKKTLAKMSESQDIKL

Values joined by “and” are separate entries in the source; they are usually repeats but may differ in a detail not shown here. Equal values may be shown once.

ALK3, sequence (P36894 24-532): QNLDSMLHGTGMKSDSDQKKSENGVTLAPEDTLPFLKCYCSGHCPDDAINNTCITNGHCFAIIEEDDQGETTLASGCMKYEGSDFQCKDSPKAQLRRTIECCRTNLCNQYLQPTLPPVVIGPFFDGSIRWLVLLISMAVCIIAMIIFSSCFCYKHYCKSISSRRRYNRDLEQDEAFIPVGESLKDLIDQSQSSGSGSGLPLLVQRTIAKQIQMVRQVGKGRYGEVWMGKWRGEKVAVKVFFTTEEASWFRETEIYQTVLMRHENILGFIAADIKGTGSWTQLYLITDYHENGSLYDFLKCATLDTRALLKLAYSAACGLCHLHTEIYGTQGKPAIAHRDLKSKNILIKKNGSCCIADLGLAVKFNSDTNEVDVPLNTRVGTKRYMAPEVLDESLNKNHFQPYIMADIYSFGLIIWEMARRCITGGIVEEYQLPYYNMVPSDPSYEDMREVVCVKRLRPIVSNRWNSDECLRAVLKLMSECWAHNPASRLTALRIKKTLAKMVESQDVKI
Protocol for ALK3: as §1
Protocol for ALK4: as §1
Protocol for ALK5: Six ALK kinase enzyme assays were developed for determination of compound activities on ALK1, ALK2, ALK3, ALK4, ALK5 and ALK6.
as §1
Protocol for ALK6: as §1

Consider `C[S+](=O)([O-])c1cccc(-c2cnn3cc(-c4ccc(OC5(Cn6ccnc6)COC5)cc4)cnc23)c1` [Compound 105, 6-(4-((3-((1H-imidazol-1-yl)methyl)oxetan-3-yl)oxy)phenyl)-3-(3-(methylsulfonyl)phenyl)pyrazolo[1,5-a]pyrimidine], for which the IC50 against ALK5 was > 10 µM; at ALK3, > 10 µM; against ALK1 [1], 0.15 µM; at ALK1 [2], 1.4 µM and 2.3 µM and 1.2 µM; against ALK4 it was > 10 µM; against ALK6, > 10 µM.
Turning to `N/C(=N/O)c1ccc(-c2cnn3cc(-c4ccc(N5CCNCC5)cc4)cnc23)c2ccccc12` [Compound 15, N′-hydroxy-4-(6-(4-(piperazin-1-yl)phenyl)pyrazolo[1,5-a]pyrimidin-3-yl)-1-naphthimidamide], the IC50 at ALK5 is 17.5 µM; on ALK3 it was 1.34 µM; at ALK1 [1] it was 1.48 µM; on ALK1 [2], 1.5 µM; against ALK4 it was 30.4 µM; against ALK6, 12.8 µM.
Take `C[C@@H]1CNC[C@H](C)N1c1ccc(-c2cnc3c(-c4cccc(C[S+](C)(=O)[O-])c4)cnn3c2)cc1` [Compound 117, 6-(4-((2R,6S)-2,6-dimethylpiperazin-1-yl)phenyl)-3-(3-((methylsulfonyl)methyl)phenyl)pyrazolo[1,5-a]pyrimidine]: the IC50 is > 10 µM at ALK5; 3.4 µM on ALK3; 0.2 µM on ALK1 [1]; 2.4 µM on ALK1 [2]; 8.5 µM at ALK4; 8.7 µM at ALK6.
In the case of `C[C@@H]1CNC[C@H](C)N1c1ccc(-c2cnc3c(-c4cccc([S+](=O)([O-])C5CC5)c4)cnn3c2)cc1` [Compound 111, 3-(3-(cyclopropylsulfonyl)phenyl)-6-(4-((2R,6S)-2,6-dimethylpiperazin-1-yl)phenyl)pyrazolo[1,5-a]pyrimidine], the IC50 at ALK5 is > 10 µM; against ALK3, 0.97 µM; against ALK1 [1], 0.12 µM; at ALK1 [2] it was 1.8 µM; against ALK4, 6.5 µM; at ALK6 it was > 10 µM.
Regarding `CS(=O)(=O)c1cccc(-c2cnn3cc(-c4ccc(OCCN5CCCC5)cc4)cnc23)c1` [Compound 108, 3-(3-(methylsulfonyl)phenyl)-6-(4-(2-(pyrrolidin-1-yl)ethoxy)phenyl)pyrazolo[1,5-a]pyrimidine], the IC50 was > 10 µM at ALK5; 2.6 µM on ALK3; 0.39 µM against ALK1 [1]; 3.9 µM on ALK1 [2]; > 10 µM on ALK4; > 10 µM against ALK6.
As for `CC(C)(CN1CCCCC1)Oc1ccc(-c2cnc3c(-c4cccc5c(C(N)=O)cccc45)cnn3c2)cc1` [Compound 18, 5-(6-(4-((2-methyl-1-(piperidin-1-yl)propan-2-yl)oxy)phenyl)pyrazolo[1,5-a]pyrimidin-3-yl)-1-naphthamide], the IC50 was 13.5 µM against ALK5; 0.035 µM against ALK3; 0.016 µM at ALK1 [1]; 0.026 µM at ALK1 [2]; 2.34 µM against ALK4; 0.183 µM against ALK6.
For the compound `CC(O)c1cccc(-c2cnn3cc(-c4ccc(N5[C@H](C)CNC[C@@H]5C)cc4)cnc23)c1` (stereo partly drawn) [Compound 83, 1-(3-(6-(4-((2R,6S)-2,6-dimethylpiperazin-1-yl)phenyl)pyrazolo[5-a]pyrimidin-3-yl)phenyl)ethanol], the IC50 was > 10 µM against ALK5; 0.52 µM on ALK3; 0.057 µM against ALK1 [1]; 1.4 µM and 1.2 µM and 1.5 µM and 1.8 µM and 2.6 µM and 0.69 µM and 0.77 µM and 1.6 µM at ALK1 [2]; 4.4 µM on ALK4; 5.4 µM on ALK6.
